Test results reported in patent US9452117B2 (priority 2011, dated 2016).

Legend:
Large^myd mice = assay: Body weight change and muscle weight of Large^myd mice; format: in vivo; conditions: 40 mg/kg body weight daily, not on weekends, 3 months
Description: The body weight change and muscle weight of treated Large^myd mice was also evaluated. Large^myd mice (at age of 10 weeks, male:female=1:1) received Compound D2 (40 mg/kg body weight) daily. No treatment on weekends. […] The muscle weight gain for the TA and EDL muscles are summarized below.

[1] = test system: Human skeletal muscle cells; format: cell-based
human skin cells = format: cell-based

Which results are given for `CCCC(CCC)CO[N+](=O)[O-]` [Compound D2, 2-propylpentyl nitrate]?
EDL muscle mass (Large^myd mice; control 0.015 ± 0.001): 0.017 ± 0.001 gram; TA muscle mass (Large^myd mice; control 0.048 ± 0.004): 0.054 ± 0.004 gram; Body weight increase (Large^myd mice; control 2%): 13%;; calcification (calcium-45 accumulation) [1]: reduce calcification; calcification (calcium-45 accumulation) (human skin cells): significant reduction
